Data taken from patent publication US9512111B2, “N-sulfonylated tetrahydroquinolines and related bicyclic compounds for inhibition of RORγ activity and the treatment of disease” (Lycera Corporation, priority 2010, dated 2016).

target: T1, RORγ-LBD (Homo sapiens, UniProt P51449); experiment: RORγ-Ligand Binding Domain TR-FRET Assay; assay type: biochemical; conditions: Table 8, indazoles
T1 construct: HIS-tagged RORγ-LBD was recombinantly expressed in SF9 cells; made in house; host or cells: SF9 cells (baculovirus); unpurified lysate
T1 sequence (P51449 269-508 limits assumed): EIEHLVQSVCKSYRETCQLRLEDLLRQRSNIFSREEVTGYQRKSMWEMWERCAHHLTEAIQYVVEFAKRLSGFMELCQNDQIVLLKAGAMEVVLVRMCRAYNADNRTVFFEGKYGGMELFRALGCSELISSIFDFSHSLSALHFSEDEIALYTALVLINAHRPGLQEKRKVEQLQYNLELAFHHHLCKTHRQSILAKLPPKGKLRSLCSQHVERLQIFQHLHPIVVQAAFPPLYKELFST
In short: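 Unpurified His-tagged LBD in Sf9 lysate (~10 nM final) in 25 mM HEPES pH 7.0, 100 mM NaCl, 0.01% Tween, 0.1% BSA, with biotinylated SRC1-2 LXXLL peptide (450 nM), Eu anti-His (2 nM) and streptavidin-APC (60 nM). Incubated 4 h to overnight; IC50 from 665/615 nm TR-FRET ratio.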

| Compound | IC50 [µM] |
| --- | --- |
| CC(=O)c1cccc(S(=O)(=O)n2ncc3ccc(NC(=O)c4c(F)cccc4Cl)cc32)c1 [Compound V-122] | < 15 |
| O=C(Nc1ccc2cnn(S(=O)(=O)c3ccc(OC(F)(F)F)cc3)c2c1)c1c(F)cccc1Cl [Compound V-153] | < 15 |
| CC(=O)c1cccc(S(=O)(=O)n2ncc3ccc(NC(=O)c4c(Cl)cccc4C(F)(F)F)cc32)c1 [Compound V-36] | < 15 |
| O=C(Nc1ccc2cnn(S(=O)(=O)c3ccc(F)cc3)c2c1)c1c(F)cccc1Cl [Compound V-171] | < 15 |
| CNC(=O)c1cccc(S(=O)(=O)n2ncc3ccc(NC(=O)c4c(F)cccc4Cl)cc32)c1 [Compound V-107] | < 15 |
| O=C(Nc1ccc2cnn(S(=O)(=O)c3cccc(OC(F)F)c3)c2c1)c1c(Cl)cccc1Cl [Compound V-68] | < 15 |
| Cc1cccc(S(=O)(=O)n2ncc3ccc(NC(=O)Cc4ccc(Cl)cc4)cc32)c1 [Compound V-31] | < 15 |
| O=C(Nc1ccc2cnn(S(=O)(=O)c3cccc(Cl)c3F)c2c1)c1c(F)cccc1Cl [Compound V-167] | < 15 |
| O=C(Nc1ccc2cnn(S(=O)(=O)c3cccc(Cl)c3)c2c1)c1c(Cl)cccc1Cl [Compound V-72] | < 15 |
| COc1ccc(S(=O)(=O)n2ncc3ccc(NC(=O)c4c(F)cccc4Cl)cc32)cn1 [Compound V-162] | < 15 |
| Cc1nn(C(F)F)cc1S(=O)(=O)n1ncc2ccc(NC(=O)c3c(Cl)cccc3C(F)(F)F)cc21 [Compound V-21] | < 15 |
| O=C(Nc1ccc2cnn(S(=O)(=O)c3ccc(Cl)c(Cl)c3)c2c1)c1c(F)cccc1Cl [Compound V-154] | < 15 |
| O=C(Nc1ccc2cnn(S(=O)(=O)c3ccccc3Cl)c2c1)c1c(F)cccc1Cl [Compound V-136] | < 15 |
| O=C(Nc1ccc2cnn(S(=O)(=O)c3ccc(F)c(C(F)(F)F)c3)c2c1)c1c(Cl)cccc1C(F)(F)F [Compound V-33] | < 15 |
| O=C(Nc1ccc2cnn(S(=O)(=O)c3cccc(OC(F)(F)F)c3)c2c1)c1c(F)cccc1F [Compound V-63] | < 15 |
| O=C(Nc1ccc2cnn(S(=O)(=O)c3ccccc3F)c2c1)c1c(F)cccc1Cl [Compound V-143] | < 15 |
| COc1ccc(S(=O)(=O)n2ncc3ccc(NC(=O)c4c(F)cccc4Cl)cc32)cc1 [Compound V-157] | < 15 |
| O=C(Nc1ccc2cnn(S(=O)(=O)c3ccc(C(F)(F)F)cc3)c2c1)c1c(F)cccc1Cl [Compound V-88] | < 15 |

Next, values leading:

| IC50 [µM] | Compound |
| --- | --- |
| < 15 | O=C(Nc1ccc2c(CO)nn(S(=O)(=O)c3cccc(C(F)(F)F)c3)c2c1)c1c(F)cccc1Cl [Compound 11, 2-Chloro-6-fluoro-N-[3-hydroxymethyl-1-(3-trifluoromethylbenzene-sulfonyl)-1H-indazol-6-yl]benzamide] |
| < 15 | CC(=O)c1cccc(S(=O)(=O)n2ncc3ccc(NC(=O)c4c(F)cccc4C(F)(F)F)cc32)c1 [Compound V-12] |
| < 15 | CN(C)C(=O)Nc1ccc(S(=O)(=O)n2ncc3ccc(NC(=O)c4c(F)cccc4Cl)cc32)cc1 [Compound V-134] |
| < 15 | Cc1ccccc1CS(=O)(=O)n1ncc2ccc(NC(=O)c3c(F)cccc3Cl)cc21 [Compound V-119] |
| < 15 | O=C(Nc1ccc2cnn(S(=O)(=O)c3cccc(Cl)c3)c2c1)c1c(F)cccc1Cl [Compound V-53] |
| < 15 | COc1ccc(S(=O)(=O)n2ncc3ccc(NC(=O)c4c(F)cccc4Cl)cc32)cc1F [Compound V-164] |
| < 15 | N#Cc1ccc(S(=O)(=O)n2ncc3ccc(NC(=O)c4c(F)cccc4Cl)cc32)c(Cl)c1 [Compound V-146] |
| < 15 | Cc1cccc(Cl)c1C(=O)Nc1ccc2cnn(S(=O)(=O)c3cccc(C(F)(F)F)c3)c2c1 [Compound V-8] |
| < 15 | O=C(Nc1ccc2cnn(S(=O)(=O)c3cccc(OC(F)(F)F)c3)c2c1)c1c(Cl)cccc1C(F)(F)F [Compound V-41] |
| < 15 | O=C(Nc1ccc2cnn(S(=O)(=O)c3ccc(F)c(C(F)(F)F)c3)c2c1)c1c(F)cccc1C(F)(F)F [Compound V-44] |
| < 15 | Cc1cccc(S(=O)(=O)n2ncc3ccc(NC(=O)c4c(Cl)cccc4Cl)cc32)c1 [Compound V-70] |
| < 15 | Cc1cccc(S(=O)(=O)n2ncc3ccc(NC(=O)c4c(F)cccc4C(F)(F)F)cc32)c1 [Compound V-46] |
| < 15 | O=C(Nc1ccc2cnn(S(=O)(=O)c3cccc(Cl)c3)c2c1)c1c(F)cccc1C(F)(F)F [Compound V-48] |
| < 15 | O=C(Nc1ccc2cnn(S(=O)(=O)c3ccc(F)cc3F)c2c1)c1c(F)cccc1Cl [Compound V-168] |
| < 15 | Cc1cc(F)ccc1S(=O)(=O)n1ncc2ccc(NC(=O)c3ccc(F)cc3Cl)cc21 [Compound V-77] |
| < 15 | CC(=O)c1cccc(S(=O)(=O)n2ncc3ccc(NC(=O)Cc4cc(F)cc(F)c4)cc32)c1 [Compound V-15] |
| < 15 | Cc1nn(C(F)F)cc1S(=O)(=O)n1ncc2ccc(NC(=O)Cc3ccc(F)c(F)c3)cc21 [Compound V-17] |
| < 15 | Cc1ccc(S(=O)(=O)n2ncc3ccc(NC(=O)c4c(F)cccc4Cl)cc32)cc1 [Compound V-158] |
| < 15 | O=C(Nc1ccc2cnn(S(=O)(=O)c3cccc(C(F)(F)F)c3)c2c1)c1c(F)cccc1Cl [Compound V-55] |
| < 15 | Cc1nn(C(F)F)cc1S(=O)(=O)n1ncc2ccc(NC(=O)Cc3cc(F)cc(F)c3)cc21 [Compound V-14] |

same assay, conditions: benzoxazines, Table 9

| Compound | IC50 [µM] |
| --- | --- |
| C[C@H](C(=O)Nc1ccc2c(c1)N(S(=O)(=O)c1ccc(F)cc1)C[C@H](C)O2)c1ccccc1 [VI-133] | < 15 |
| C[C@H]1CN(S(=O)(=O)c2cccc(C#N)c2)c2cc(NC(=O)c3c(Cl)cccc3Cl)ccc2O1 [VI-3] | < 15 |
| N#Cc1cccc(S(=O)(=O)N2C[C@H](CO)Oc3ccc(NC(=O)c4c(F)cccc4F)cc32)c1 [VI-65] | < 15 |

Continued, values first:

| IC50 [µM] | Compound |
| --- | --- |
| < 15 | C[C@H]1CN(S(=O)(=O)c2cccc(C#N)c2)c2cc(NC(=O)c3c(F)cccc3Cl)ccc2O1 [VI-6] |
| < 15 | O=C(Nc1ccc2c(c1)N(S(=O)(=O)c1ccc(F)cc1)C(CO)CO2)c1c(F)cccc1Cl (centres unmarked) [Compound 23, 2-Chloro-6-fluoro-N-[4-(4-fluorobenzenesulfonyl)-3-hydroxymethyl-3,4-dihydro-2H-benzo[1,5]oxazin-6-yl]benzamide] |
| < 15 | C[C@H]1CN(S(=O)(=O)c2ccc(F)cc2)c2cc(NC(=O)c3c(Cl)cccc3Cl)ccc2O1 [VI-18] |
| < 15 | C[C@H]1CN(S(=O)(=O)c2ccc(F)cc2)c2cc(NC(=O)C(C)(C)c3ccc(Cl)cc3)ccc2O1 [VI-135] |
| < 15 | O=C(Cc1ccc(Cl)cc1)Nc1ccc2c(c1)N(S(=O)(=O)c1ccc(F)c(F)c1)C[C@@H](CO)O2 [VI-71] |
| > 15 | O=C(Nc1ccc2c(c1)N(S(=O)(=O)c1ccc(F)cc1)C[C@H](CO)O2)c1c(F)cccc1Cl [Compound 18, (R)-2-Chloro-6-fluoro-N-(4-((4-fluorophenyl)sulfonyl)-2-(hydroxymethyl)-3,4-dihydro-2H-benzo[b][1,4]oxazin-6-yl)benzamide] |
